The results in this text go back to ChEMBL document CHEMBL1154035, “Synthesis, characterization, and anti-melanoma activity of tetra-O-substituted analogs of nordihydroguaiaretic acid” (Bioorg Med Chem Lett, 2009).

This data set deals with Mus musculus. The data set is described as follows: Toxicity in ip dosed mouse. Format: organism-based. To be noted: in vivo.

For orientation: LD50 means the dose at which mortality reaches 50%. Read a low LD50 as greater toxicity. `CC(Cc1ccc(O)c(O)c1)C(C)Cc1ccc(O)c(O)c1` (configuration not stated) [NORDIHYDROGUAIARETIC ACID] displayed an LD50 of 75 mg/kg.

`COc1ccc(C[C@@H](C)[C@@H](C)Cc2ccc(OC)c(OC)c2)cc1OC` [TERAMEPROCOL] returned an LD50 of 1000 mg/kg.
